Test results taken from patent US20260116910A1, “POLYCYCLIC COMPOUNDS AND METHODS THEREOF” (HEPAITECH (BEIJING) BIOPHARMA TECHNOLOGY CO., LTD., priority 2021, published 2026).

Tests used:
[1] = target: MRGPRX4 (Homo sapiens, UniProt Q96LA9); test: MRGPRX4 activation, Fluo-8 Ca2+ FLIPR assay in HEK293T cells stably expressing MRGPRX4; assay type: cell-based; parameters: key to MRGPRX4 activation, Average / MRGPRX4 activation, Ave.: fluorescence change dF/F0; details: for EC50: MRGPRX4 activation, Ca2+ fluorescence, no activation in tested range reported as III, read-out: Activity (EC50 μM)
Chain of MRGPRX4 (Q96LA9 whole entry): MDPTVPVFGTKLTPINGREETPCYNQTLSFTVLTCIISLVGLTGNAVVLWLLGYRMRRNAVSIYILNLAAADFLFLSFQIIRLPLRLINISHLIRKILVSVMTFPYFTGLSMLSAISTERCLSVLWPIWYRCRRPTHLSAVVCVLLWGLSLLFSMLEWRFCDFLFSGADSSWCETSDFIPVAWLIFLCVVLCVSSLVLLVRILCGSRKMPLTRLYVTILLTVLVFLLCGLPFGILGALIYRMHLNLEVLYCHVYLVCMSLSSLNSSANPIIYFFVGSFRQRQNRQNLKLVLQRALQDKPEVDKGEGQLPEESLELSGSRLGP
Procedure, shortened: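 Cells seeded overnight to >95% confluence, loaded 40-60 min at room temperature with 2 μM Fluo-8 AM, then kept in HHBS. Baseline read 30 s, compound added, signal followed 150 s more.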

[2] = target: T1, human FXR (NR1H4) (Homo sapiens, UniProt Q96RI1); test: Human FXR (NR1H4) agonist assessment, FXRE-NanoLuc reporter in HEK293T cells; assay type: cell-based; details: FXR activation, HEK293T FXRE-NanoLuc reporter, 24 hr; for EC50: read-out: EC50
T1 sequence (Q96RI1 1-476 isoform Q96RI1-1): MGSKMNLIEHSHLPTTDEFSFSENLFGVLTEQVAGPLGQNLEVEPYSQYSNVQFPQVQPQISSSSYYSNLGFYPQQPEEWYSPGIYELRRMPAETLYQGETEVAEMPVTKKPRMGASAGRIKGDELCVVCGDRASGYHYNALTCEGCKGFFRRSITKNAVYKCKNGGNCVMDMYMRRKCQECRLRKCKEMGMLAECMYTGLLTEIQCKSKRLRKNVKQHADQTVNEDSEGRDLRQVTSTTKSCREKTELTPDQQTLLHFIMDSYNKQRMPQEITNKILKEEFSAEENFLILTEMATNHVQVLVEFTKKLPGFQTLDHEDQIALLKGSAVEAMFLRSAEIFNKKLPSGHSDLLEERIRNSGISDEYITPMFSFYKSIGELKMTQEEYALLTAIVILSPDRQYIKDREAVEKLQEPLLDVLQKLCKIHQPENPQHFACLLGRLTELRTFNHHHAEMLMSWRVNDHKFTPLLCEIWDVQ
Procedure, shortened: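 HEK293T cells stably expressing human FXR with an FXRE-NanoLuc reporter were treated with compounds for 24 hr at 37 °C, with 0.01% DMSO as negative control. Medium was read for luminescence after 5 min with coelenterazine. EC50 was fitted by sigmoid to concentration-response data.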

CC[C@H]1[C@@H](O)[C@@H]2[C@H](CC[C@]3(C)[C@@H]([C@H](C)COC(=O)NS(=O)(=O)c4ccc5c(c4)CCC(C)(C)O5)CC[C@@H]23)[C@@]2(C)CCCC[C@@H]12 [18-2]
EC50 [1]: > 100 µM | Activation (%) ([1]; second E3-8-1, 4.6 nM, n = 1): 2.86% | Activation (%) ([1]; second E3-8-1, 4.6 nM, n = 2): 3.17% | Activation (%) ([1]; second E3-8-1, 14 nM, n = 1): 3.79% | Activation (%) ([1]; second E3-8-1, 14 nM, n = 2): 3.79% | Activation (%) ([1]; second E3-8-1, 41 nM, n = 1): 3.17% | Activation (%) ([1]; second E3-8-1, 41 nM, n = 2): 1.93% | Activation (%) ([1]; second E3-8-1, 123 nM, n = 1): 3.48% | Activation (%) ([1]; second E3-8-1, 123 nM, n = 2): 2.86% | Activation (%) ([1]; second E3-8-1, 370 nM, n = 1): 3.48% | Activation (%) ([1]; second E3-8-1, 370 nM, n = 2): 3.48% | Activation (%) ([1]; second E3-8-1, 1111 nM, n = 1): 2.24% | Activation (%) ([1]; second E3-8-1, 1111 nM, n = 2): 2.55% | Activation (%) ([1]; second E3-8-1, 3333 nM, n = 1): 3.17% | Activation (%) ([1]; second E3-8-1, 3333 nM, n = 2): 1.93% | Activation (%) ([1]; second E3-8-1, 10000 nM, n = 1): 3.48% | Activation (%) ([1]; second E3-8-1, 10000 nM, n = 2): 2.24% | Activation (%) ([1]; second E3-8-1, 30000 nM, n = 1): 4.10% | Activation (%) ([1]; second E3-8-1, 30000 nM, n = 2): 3.48% | Efficacy (maximum measured induction of NanoLuc, normalized to CDCA set as 100%) [2]: A (efficacy >400%) | EC50 [2]: < 1 µM

CC[C@H]1[C@@H](O)[C@@H]2[C@H](CC[C@]3(C)[C@@H]([C@H](C)CC#N)CC[C@@H]23)[C@@]2(C)CCCC[C@@H]12 [2-4]
MRGPRX4 activation, fluorescence change (dF/F0), Average ([1]; Conc. (Log[M]) −4): 0.008 | MRGPRX4 activation, fluorescence change (dF/F0), Average ([1]; Conc. (Log[M]) −4.5): −0.025 | MRGPRX4 activation, fluorescence change (dF/F0), Average ([1]; Conc. (Log[M]) −5): −0.026 | MRGPRX4 activation, fluorescence change (dF/F0), Average ([1]; Conc. (Log[M]) −5.5): −0.018 | MRGPRX4 activation, fluorescence change (dF/F0), Average ([1]; Conc. (Log[M]) −6): −0.037 | MRGPRX4 activation, fluorescence change (dF/F0), Average ([1]; Conc. (Log[M]) −7): −0.025 | MRGPRX4 activation, fluorescence change (dF/F0), Average ([1]; Conc. (Log[M]) −8): −0.038 | MRGPRX4 activation, fluorescence change (dF/F0), Average ([1]; Conc. (Log[M]) −9): −0.037 | EC50 [1]: > 100 µM | Efficacy (maximum measured induction of NanoLuc, normalized to CDCA set as 100%) [2]: C (100%<efficacy <=300%) | EC50 [2]: > 10 µM

CC[C@H]1[C@@H](O)[C@@H]2[C@H](CC[C@]3(C)[C@@H]([C@H](C)CCNC(=O)NS(=O)(=O)c4cc(F)cc(F)c4)CC[C@@H]23)[C@@]2(C)CCC(F)(F)C[C@@H]12 [10-3]
MRGPRX4 activation, Average ([1]; E3-9, Conc. (Log[M]) −4.0): 0.010 | MRGPRX4 activation, Average ([1]; E3-9, Conc. (Log[M]) −4.5): 0.004 | MRGPRX4 activation, Average ([1]; E3-9, Conc. (Log[M]) −5.0): 0.014 | MRGPRX4 activation, Average ([1]; E3-9, Conc. (Log[M]) −5.4): 0.016 | MRGPRX4 activation, Average ([1]; E3-9, Conc. (Log[M]) −5.9): 0.023 | MRGPRX4 activation, Average ([1]; E3-9, Conc. (Log[M]) −6.4): 0.018 | MRGPRX4 activation, Average ([1]; E3-9, Conc. (Log[M]) −6.9): 0.023 | MRGPRX4 activation, Average ([1]; E3-9, Conc. (Log[M]) −7.3): 0.021 | MRGPRX4 activation, Average ([1]; E3-9, Conc. (Log[M]) −7.8): 0.012 | MRGPRX4 activation, Average ([1]; E3-9, Conc. (Log[M]) −8.3): 0.018 | EC50 [1]: > 100 µM | Efficacy (maximum measured induction of NanoLuc, normalized to CDCA set as 100%) [2]: C (100%<efficacy <=300%) | EC50 [2]: < 1 µM

CC[C@H]1[C@@H](O)[C@@H]2[C@H](CC[C@]3(C)[C@@H]([C@H](C)CCNC(=O)NS(=O)(=O)C4CCCCC4)CC[C@@H]23)[C@@]2(C)CCCC[C@@H]12 [5-3]
MRGPRX4 activation, fluorescence change (dF/F0), Average ([1]; Conc. (Log[M]) −4): 0.297 | MRGPRX4 activation, fluorescence change (dF/F0), Average ([1]; Conc. (Log[M]) −4.5): 0.031 | MRGPRX4 activation, fluorescence change (dF/F0), Average ([1]; Conc. (Log[M]) −5): 0.001 | MRGPRX4 activation, fluorescence change (dF/F0), Average ([1]; Conc. (Log[M]) −5.5): −0.012 | MRGPRX4 activation, fluorescence change (dF/F0), Average ([1]; Conc. (Log[M]) −6): −0.033 | MRGPRX4 activation, fluorescence change (dF/F0), Average ([1]; Conc. (Log[M]) −7): −0.011 | MRGPRX4 activation, fluorescence change (dF/F0), Average ([1]; Conc. (Log[M]) −8): −0.012 | MRGPRX4 activation, fluorescence change (dF/F0), Average ([1]; Conc. (Log[M]) −9): 0.002 | EC50 [1]: > 100 µM | Efficacy (maximum measured induction of NanoLuc, normalized to CDCA set as 100%) [2]: C (100%<efficacy <=300%) | EC50 [2]: 1 to 10 µM

CC[C@H]1[C@@H](O)[C@@H]2[C@H](CC[C@]3(C)[C@@H]([C@H](C)CC(=O)NS(=O)(=O)C(C)(C)C)CC[C@@H]23)[C@@]2(C)CCCC[C@@H]12 [4-3]
EC50 [1]: > 100 µM | Efficacy (maximum measured induction of NanoLuc, normalized to CDCA set as 100%) [2]: B (300%<efficacy <=400%) | EC50 [2]: 1 to 10 µM
